Where two headings read alike, the source gives them in different places.
Legend:
Test in all cases: Kinase profile (33P ATP filter binding)
Format in all cases: biochemical
CK1δ = CK1δ (Homo sapiens, UniProt P48730); details: read-out: Remaining protein kinase activity
PKD1 = molecular target: T1, PKD1 (Homo sapiens, UniProt Q15139); details: read-out: Remaining protein kinase activity
T1 sequence (Q15139 1-912): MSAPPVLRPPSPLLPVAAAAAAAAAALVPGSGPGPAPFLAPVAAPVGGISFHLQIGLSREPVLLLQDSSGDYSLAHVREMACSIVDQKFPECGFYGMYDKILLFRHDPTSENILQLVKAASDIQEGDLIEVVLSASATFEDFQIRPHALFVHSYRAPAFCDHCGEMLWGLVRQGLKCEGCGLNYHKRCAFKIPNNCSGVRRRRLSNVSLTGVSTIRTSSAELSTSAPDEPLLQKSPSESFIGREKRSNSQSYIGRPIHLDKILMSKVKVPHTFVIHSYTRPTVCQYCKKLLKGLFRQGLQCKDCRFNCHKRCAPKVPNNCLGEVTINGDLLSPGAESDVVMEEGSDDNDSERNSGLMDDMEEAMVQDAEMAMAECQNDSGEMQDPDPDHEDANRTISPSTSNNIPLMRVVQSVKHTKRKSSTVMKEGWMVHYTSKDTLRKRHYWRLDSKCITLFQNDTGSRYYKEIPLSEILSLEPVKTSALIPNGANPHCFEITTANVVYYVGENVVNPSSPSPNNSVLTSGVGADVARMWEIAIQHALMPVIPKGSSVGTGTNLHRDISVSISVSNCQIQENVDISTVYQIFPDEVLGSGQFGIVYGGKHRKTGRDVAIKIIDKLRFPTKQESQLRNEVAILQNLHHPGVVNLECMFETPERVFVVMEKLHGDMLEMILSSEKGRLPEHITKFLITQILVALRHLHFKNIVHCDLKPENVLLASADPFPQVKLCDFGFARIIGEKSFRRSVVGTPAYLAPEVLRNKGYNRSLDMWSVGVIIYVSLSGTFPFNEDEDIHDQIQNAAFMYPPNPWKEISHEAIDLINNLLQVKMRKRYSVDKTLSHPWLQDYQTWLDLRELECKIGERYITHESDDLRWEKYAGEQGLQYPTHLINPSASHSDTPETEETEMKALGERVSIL

MAP4K3 = molecular target: T2, MAP4K3 (Homo sapiens, UniProt Q8IVH8)
T2 sequence (Q8IVH8 1-894): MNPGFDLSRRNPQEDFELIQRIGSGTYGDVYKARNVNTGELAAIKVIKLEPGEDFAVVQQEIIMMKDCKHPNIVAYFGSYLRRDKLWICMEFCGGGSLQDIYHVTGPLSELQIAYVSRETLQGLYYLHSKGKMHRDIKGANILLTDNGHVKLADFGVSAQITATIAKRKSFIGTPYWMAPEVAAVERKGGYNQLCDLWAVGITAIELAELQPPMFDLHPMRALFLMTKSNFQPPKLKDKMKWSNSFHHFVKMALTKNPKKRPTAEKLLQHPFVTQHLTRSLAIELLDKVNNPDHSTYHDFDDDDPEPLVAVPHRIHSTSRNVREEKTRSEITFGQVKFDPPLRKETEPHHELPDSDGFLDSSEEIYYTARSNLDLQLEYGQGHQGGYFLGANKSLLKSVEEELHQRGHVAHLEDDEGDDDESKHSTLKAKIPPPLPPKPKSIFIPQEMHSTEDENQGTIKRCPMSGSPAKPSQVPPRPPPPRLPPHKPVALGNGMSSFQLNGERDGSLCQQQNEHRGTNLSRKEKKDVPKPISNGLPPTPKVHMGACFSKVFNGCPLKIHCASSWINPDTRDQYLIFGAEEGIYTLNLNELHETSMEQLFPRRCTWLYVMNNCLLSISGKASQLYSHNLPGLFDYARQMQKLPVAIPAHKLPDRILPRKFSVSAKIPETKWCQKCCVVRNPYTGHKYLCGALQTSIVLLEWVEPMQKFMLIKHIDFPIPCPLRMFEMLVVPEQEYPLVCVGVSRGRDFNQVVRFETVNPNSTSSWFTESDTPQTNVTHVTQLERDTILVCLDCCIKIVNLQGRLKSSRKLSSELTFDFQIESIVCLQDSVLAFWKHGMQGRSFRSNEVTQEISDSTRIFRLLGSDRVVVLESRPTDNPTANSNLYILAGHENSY

MAP4K5 = MAP4K5 (Homo sapiens, UniProt Q9Y4K4); details: read-out: Remaining protein kinase activity
p38b MAPK = p38b MAPK (Homo sapiens, UniProt Q15759); details: read-out: Remaining protein kinase activity
BRK = BRK (Homo sapiens, UniProt Q13882); details: read-out: Remaining protein kinase activity
MAPKAP-K2 = MAPKAP-K2 (Homo sapiens, UniProt P49137); details: read-out: Remaining protein kinase activity
JNK1 = JNK1 (Homo sapiens, UniProt P45983)
DAPK1 = DAPK1 (Homo sapiens, UniProt P53355); details: read-out: Remaining protein kinase activity
Chain of DAPK1 (P53355 whole entry): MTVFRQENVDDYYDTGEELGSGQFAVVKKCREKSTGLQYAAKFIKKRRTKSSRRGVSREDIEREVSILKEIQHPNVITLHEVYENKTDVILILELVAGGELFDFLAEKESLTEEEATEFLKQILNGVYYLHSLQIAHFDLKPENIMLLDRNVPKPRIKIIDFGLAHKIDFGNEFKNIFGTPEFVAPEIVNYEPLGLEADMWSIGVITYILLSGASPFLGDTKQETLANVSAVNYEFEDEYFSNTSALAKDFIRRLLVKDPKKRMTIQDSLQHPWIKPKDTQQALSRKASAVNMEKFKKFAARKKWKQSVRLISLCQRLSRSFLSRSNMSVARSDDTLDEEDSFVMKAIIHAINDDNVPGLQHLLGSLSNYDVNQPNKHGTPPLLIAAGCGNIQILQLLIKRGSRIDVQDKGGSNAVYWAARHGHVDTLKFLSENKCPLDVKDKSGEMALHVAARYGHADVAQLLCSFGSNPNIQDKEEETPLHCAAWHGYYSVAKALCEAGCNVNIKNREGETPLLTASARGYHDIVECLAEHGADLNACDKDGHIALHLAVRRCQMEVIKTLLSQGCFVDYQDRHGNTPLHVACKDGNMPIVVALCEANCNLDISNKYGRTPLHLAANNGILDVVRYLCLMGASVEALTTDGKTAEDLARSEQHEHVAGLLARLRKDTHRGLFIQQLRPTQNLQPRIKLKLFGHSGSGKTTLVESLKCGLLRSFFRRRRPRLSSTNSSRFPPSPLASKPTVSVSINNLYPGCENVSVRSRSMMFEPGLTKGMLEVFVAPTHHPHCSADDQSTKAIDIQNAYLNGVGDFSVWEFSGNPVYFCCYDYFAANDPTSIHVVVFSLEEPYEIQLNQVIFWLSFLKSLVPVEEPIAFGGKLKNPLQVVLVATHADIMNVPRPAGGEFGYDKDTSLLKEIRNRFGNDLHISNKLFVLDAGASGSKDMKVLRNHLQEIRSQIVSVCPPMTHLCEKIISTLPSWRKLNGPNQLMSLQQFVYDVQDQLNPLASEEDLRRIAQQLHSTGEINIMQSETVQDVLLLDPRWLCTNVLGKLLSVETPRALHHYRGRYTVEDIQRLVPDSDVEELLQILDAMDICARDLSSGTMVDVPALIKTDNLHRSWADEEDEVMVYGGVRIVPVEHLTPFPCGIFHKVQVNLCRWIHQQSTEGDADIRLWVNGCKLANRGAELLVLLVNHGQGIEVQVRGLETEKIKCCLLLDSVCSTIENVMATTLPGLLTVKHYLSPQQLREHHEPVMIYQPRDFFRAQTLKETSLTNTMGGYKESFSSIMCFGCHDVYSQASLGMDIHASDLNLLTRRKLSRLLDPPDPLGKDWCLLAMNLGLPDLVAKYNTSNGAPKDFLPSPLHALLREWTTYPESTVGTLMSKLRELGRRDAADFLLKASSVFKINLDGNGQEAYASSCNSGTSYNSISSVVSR

Chain of MAPKAP-K2 (P49137 whole entry): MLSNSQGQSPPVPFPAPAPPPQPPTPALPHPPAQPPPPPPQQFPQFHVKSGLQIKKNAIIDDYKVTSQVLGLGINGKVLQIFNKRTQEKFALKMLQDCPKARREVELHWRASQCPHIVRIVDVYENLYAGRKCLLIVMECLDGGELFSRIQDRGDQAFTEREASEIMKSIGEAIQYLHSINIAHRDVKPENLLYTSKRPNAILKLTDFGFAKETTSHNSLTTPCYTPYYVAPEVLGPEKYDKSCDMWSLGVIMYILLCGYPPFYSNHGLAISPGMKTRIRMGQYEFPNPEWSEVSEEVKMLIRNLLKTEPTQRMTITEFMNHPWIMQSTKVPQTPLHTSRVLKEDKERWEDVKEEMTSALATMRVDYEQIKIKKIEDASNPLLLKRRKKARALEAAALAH
Chain of JNK1 (P45983 whole entry, species assumed): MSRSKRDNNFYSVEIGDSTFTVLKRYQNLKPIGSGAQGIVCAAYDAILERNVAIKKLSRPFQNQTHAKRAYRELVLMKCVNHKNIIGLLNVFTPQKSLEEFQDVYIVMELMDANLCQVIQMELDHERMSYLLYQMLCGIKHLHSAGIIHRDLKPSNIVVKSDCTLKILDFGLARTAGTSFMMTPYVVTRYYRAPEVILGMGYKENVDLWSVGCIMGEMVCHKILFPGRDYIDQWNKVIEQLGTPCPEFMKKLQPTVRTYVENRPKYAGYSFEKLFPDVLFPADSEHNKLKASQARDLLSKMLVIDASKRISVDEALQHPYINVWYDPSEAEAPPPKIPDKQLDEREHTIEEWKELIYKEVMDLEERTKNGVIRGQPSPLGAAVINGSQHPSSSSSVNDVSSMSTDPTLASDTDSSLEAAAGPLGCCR
Chain of p38b MAPK (Q15759 whole entry): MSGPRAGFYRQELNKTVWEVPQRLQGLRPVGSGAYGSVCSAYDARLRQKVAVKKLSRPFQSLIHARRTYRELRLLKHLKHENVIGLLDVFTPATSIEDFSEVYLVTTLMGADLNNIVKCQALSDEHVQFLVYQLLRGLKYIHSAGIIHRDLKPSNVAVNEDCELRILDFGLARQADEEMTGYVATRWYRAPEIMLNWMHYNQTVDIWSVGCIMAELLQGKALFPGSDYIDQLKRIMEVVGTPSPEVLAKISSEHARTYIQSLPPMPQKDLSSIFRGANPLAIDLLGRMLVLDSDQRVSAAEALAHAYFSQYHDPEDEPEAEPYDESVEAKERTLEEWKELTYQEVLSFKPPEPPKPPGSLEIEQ
Chain of MAP4K5 (Q9Y4K4 whole entry): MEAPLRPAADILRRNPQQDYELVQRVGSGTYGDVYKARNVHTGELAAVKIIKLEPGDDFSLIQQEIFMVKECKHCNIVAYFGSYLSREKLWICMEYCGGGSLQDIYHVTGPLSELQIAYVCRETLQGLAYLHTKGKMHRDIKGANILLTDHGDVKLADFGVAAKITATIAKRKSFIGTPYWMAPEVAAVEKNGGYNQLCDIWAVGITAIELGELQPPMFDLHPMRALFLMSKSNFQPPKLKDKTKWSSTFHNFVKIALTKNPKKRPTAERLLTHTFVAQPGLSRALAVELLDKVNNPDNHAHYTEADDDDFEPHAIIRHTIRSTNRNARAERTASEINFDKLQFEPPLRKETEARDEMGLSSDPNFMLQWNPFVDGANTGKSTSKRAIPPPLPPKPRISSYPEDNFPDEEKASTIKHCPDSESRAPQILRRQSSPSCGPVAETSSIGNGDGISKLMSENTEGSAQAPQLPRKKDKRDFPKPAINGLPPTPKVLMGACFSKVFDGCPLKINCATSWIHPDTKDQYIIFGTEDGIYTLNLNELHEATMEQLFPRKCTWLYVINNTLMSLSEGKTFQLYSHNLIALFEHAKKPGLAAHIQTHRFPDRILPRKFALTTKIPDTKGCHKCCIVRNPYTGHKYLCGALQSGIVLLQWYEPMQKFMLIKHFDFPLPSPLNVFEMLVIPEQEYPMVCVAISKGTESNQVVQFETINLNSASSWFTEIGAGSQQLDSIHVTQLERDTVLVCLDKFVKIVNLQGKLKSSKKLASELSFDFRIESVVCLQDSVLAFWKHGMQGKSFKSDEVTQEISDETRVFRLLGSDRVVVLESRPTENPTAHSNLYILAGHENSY
Chain of CK1δ (P48730 whole entry): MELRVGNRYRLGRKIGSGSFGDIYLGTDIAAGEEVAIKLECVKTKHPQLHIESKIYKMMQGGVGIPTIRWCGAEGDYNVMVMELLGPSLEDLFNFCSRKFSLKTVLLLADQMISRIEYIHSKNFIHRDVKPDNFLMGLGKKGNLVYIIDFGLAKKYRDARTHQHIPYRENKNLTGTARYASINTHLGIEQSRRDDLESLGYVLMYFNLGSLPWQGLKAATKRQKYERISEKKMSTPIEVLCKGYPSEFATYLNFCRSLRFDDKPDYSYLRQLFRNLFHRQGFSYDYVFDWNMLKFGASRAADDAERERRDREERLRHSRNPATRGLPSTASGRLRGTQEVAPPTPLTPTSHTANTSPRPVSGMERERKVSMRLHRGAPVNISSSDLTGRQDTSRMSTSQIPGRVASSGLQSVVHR
Chain of BRK (Q13882 whole entry): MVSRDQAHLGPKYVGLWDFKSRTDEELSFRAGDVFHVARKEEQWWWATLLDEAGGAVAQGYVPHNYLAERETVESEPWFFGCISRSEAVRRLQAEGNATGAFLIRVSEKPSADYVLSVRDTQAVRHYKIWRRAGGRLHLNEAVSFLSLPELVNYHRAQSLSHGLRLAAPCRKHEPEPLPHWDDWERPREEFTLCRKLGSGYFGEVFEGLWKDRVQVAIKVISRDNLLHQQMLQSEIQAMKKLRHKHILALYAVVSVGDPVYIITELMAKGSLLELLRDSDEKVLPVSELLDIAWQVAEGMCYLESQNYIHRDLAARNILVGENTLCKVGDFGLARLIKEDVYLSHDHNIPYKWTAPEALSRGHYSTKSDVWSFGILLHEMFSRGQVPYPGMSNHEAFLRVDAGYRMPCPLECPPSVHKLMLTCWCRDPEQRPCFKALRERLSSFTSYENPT

COc1ccc2sc(-c3cncc(N)c3)nc2c1 [compound 1, 5-(5-Methoxybenzo[d]thiazol-2-yl)pyridin-3-amine] was tested, and the remaining activity at 1 µM (CK1δ; CK1δ, 1 μM) was 107%, the remaining activity at 100 µM (CK1δ; CK1δ, 100 μM) was 13% and the remaining activity at 1 µM (PKD1; PKD1, 1 μM) was 94%. For the same molecule, the remaining activity at 100 µM (PKD1; PKD1, 100 μM) was 23%, the “Remaining protein kinase activity” value (MAP4K3; 1 μM) was 98% and the “Remaining protein kinase activity” value (MAP4K3; 100 μM) was 22%. The remaining activity at 1 µM (MAP4K5; MAP4K5, 1 μM) was 106%, the remaining activity at 100 µM (MAP4K5; MAP4K5, 100 μM) was 61% and the remaining activity at 1 µM (p38b MAPK; p38b MAPK, 1 μM) was 119%. The remaining activity at 100 µM (p38b MAPK; p38b MAPK, 100 μM) was 101%, the remaining activity at 1 µM (BRK; BRK, 1 μM) was 94% and the remaining activity at 100 µM (BRK; BRK, 100 μM) was 50%. The remaining activity at 1 µM (MAPKAP-K2; MAPKAP-K2, 1 μM) was 122%, the remaining activity at 100 µM (MAPKAP-K2; MAPKAP-K2, 100 μM) was 66% and the “Remaining protein kinase activity” value (JNK1; 1 μM) was 112%. The “Remaining protein kinase activity” value (JNK1; 100 μM) was 94%, the remaining activity at 1 µM (DAPK1; DAPK1, 1 μM) was 103% and the remaining activity at 100 µM (DAPK1; DAPK1, 100 μM) was 58%.
COc1ccc2sc(-c3cncc(NC(C)=O)c3)nc2c1 [PST-001, N-(5-(5-Methoxybenzo[d]thiazol-2-yl)pyridin-3-yl)acetamide] was tested, and the remaining activity at 1 µM (CK1δ) was 99%, the remaining activity at 100 µM (CK1δ) was 59% and the remaining activity at 1 µM (PKD1) was 103%. For the same molecule, the remaining activity at 100 µM (PKD1) was 92%, the “Remaining protein kinase activity” value (MAP4K3; 1 μM) was 111% and the “Remaining protein kinase activity” value (MAP4K3; 100 μM) was 94%. It also gave a remaining activity at 1 µM (MAP4K5) of 82%, a remaining activity at 100 µM (MAP4K5) of 92% and a remaining activity at 100 µM (p38b MAPK) of 115%. The remaining activity at 1 µM (BRK) was 106%, the remaining activity at 100 µM (BRK) was 106% and the remaining activity at 1 µM (MAPKAP-K2) was 109%. The remaining activity at 100 µM (MAPKAP-K2) was 111%, the “Remaining protein kinase activity” value (JNK1; 1 μM) was 113% and the “Remaining protein kinase activity” value (JNK1; 100 μM) was 130%. It also gave a remaining activity at 1 µM (DAPK1) of 114% and a remaining activity at 100 µM (DAPK1) of 101%.

Reference: paper PMC8617627, “Novel DYRK1A Inhibitor Rescues Learning and Memory Deficits in a Mouse Model of Down Syndrome” (Pharmaceuticals, 2021)
